{
  "source": "patent US9802898B2",
  "about": "“Phenyl and tertbutylacetic acid substituted pyridinones having anti-HIV effects” (priority 2014, dated 2017)",
  "data": [
    {"system": "HIV", "experiment": "MT4 assay, antiviral HIV activity", "assay_type": "cell-based", "conditions": "Human immunodeficiency virus 1, 96 h, read-out: HIV MT4 Assay IC50", "procedure": "Antiviral HIV activity and cytotoxicity values for compounds of the invention from Table 1 were measured in parallel in the HTLV-1 transformed cell line MT-4 based on the method previously described (Hazen et al., 2007, In vitro antiviral activity of the novel, tyrosyl-based human immunodeficiency virus (HIV) type 1 protease inhibitor brecanavir (GW640385) in combination with other antiretrovirals and against a panel of protease inhibitor-resistant HIV (Hazen et al., “In vitro antiviral activity of the novel, tyrosyl-based human immunodeficiency virus (HIV) type 1 protease inhibitor brecanavir (GW640385) in combination with other antiretrovirals and against a panel of protease inhibitor-resistant HIV”, Antimicrob. Agents Chemother. 2007, 51: 3147-3154; and Pauwels et al., “Sensitive and rapid assay on MT-4 cells for the detection of antiviral compounds against the AIDS virus”, J. of Virological Methods 1987, 16: 171-185).\nLuciferase activity was measured 96 hours later by adding a cell titer glo (Promega, Madison, Wis.). Percent inhibition of cell protection data was plotted relative to no compound control. Under the same condition, cytotoxicity of the compounds was determined using cell titer Glo™ (Promega, Madison, Wis.). IC50s were determined from a 10 point dose response curve using 3-4-fold serial dilution for each compound, which spans a concentration range >1000 fold.\nThese values are plotted against the molar compound concentrations using the standard four parameter logistic equation: y=((Vmax*x^n)/(K^n+x^n))+Y2\nY2=minimum y n=slope factor\nVmax=maximum y x=compound concentration [M]", "units": {"IC50": "nM"}, "values": [
      {"smiles": "Cc1ccc(-c2c(C)c(C(=O)N[C@H]3CC[C@H](C)CC3)cc(=O)n2C(CC(C)(C)C)C(=O)O)cc1", "note": "(stereo partly drawn) [Example 1, 4,4-Dimethyl-2-(5-methyl-4-(((1r,4r)-4-methylcyclohexyl)carbamoyl)-2-oxo-6-(p-tolyl)pyridin-1(2H)-yl)pentanoic acid]", "IC50": 350},
      {"smiles": "Cc1ccc(-c2c(C)c(-c3ccc(C)c(C)c3)cc(=O)n2C(CC(C)(C)C)C(=O)O)cc1", "note": "(stereo not drawn) [Example 2, 2-(4-(3,4-Dimethylphenyl)-5-methyl-2-oxo-6-(p-tolyl)pyridin-1(2H)-yl)-4,4-dimethylpentanoic acid]", "IC50": 1090},
      {"smiles": "Cc1ccc(-c2c(C)c(-c3ccc(C)c(C)c3)c(NS(C)(=O)=O)c(=O)n2C(CC(C)(C)C)C(=O)O)cc1", "note": "(stereo not drawn) [Example 3, 2-(4-(3,4-dimethylphenyl)-5-methyl-3-(methylsulfonamido)-2-oxo-6-(p-tolyl)pyridin-1(2H)-yl)-4,4-dimethylpentanoic acid]", "IC50": 310},
      {"smiles": "Cc1ccc(-c2c(C)cc(NS(C)(=O)=O)c(=O)n2C(CC(C)(C)C)C(=O)O)cc1", "note": "(stereo not drawn) [Example 4, 4,4-Dimethyl-2-(5-methyl-3-(methylsulfonamido)-2-oxo-6-(p-tolyl)pyridin-1(2H)-yl)pentanoic acid]", "IC50": 33000},
      {"smiles": "Cc1ccc(-c2c(C)c(-c3nnc(N[C@H]4CC[C@H](C)CC4)o3)cc(=O)n2C(CC(C)(C)C)C(=O)O)cc1", "note": "(stereo partly drawn) [Example 6, 4,4-Dimethyl-2-(5-methyl-4-(5-(((1 r,4r)-4-methylcyclohexyl)amino)-1,3,4-oxadiazol-2-yl)-2-oxo-6-(p-tolyl)pyridin-1(2H)-yl)pentanoic acid]", "IC50": 5600},
      {"smiles": "Cc1ccc(-c2c(C)c(C(=O)NC3CCCCC3)cc(=O)n2C(CC(C)(C)C)C(=O)O)cc1", "note": "(stereo not drawn) [Example 7, 2-(4-(cyclohexylcarbamoyl)-5-methyl-2-oxo-6-p-tolylpyridin-1(2H)-yl)-4,4-dimethylpentanoic acid]", "IC50": 430},
      {"smiles": "Cc1ccc(-c2c(C)c(C(=O)NCC3CCCCC3)cc(=O)n2C(CC(C)(C)C)C(=O)O)cc1", "note": "(stereo not drawn) [Example 8, 2-(4-(cyclohexylmethylcarbamoyl)-5-methyl-2-oxo-6-p-tolylpyridin-1(2H)-yl)-4,4-dimethylpentanoic acid]", "IC50": 840},
      {"smiles": "Cc1ccc(-c2c(C)c(C(=O)NCc3ccccc3)cc(=O)n2C(CC(C)(C)C)C(=O)O)cc1", "note": "(stereo not drawn) [Example 9, 2-(4-(benzylcarbamoyl)-5-methyl-2-oxo-6-p-tolylpyridin-1(2H)-yl)-4,4-dimethylpentanoic acid]", "IC50": 3290},
      {"smiles": "Cc1ccc(-c2c(C)cc(NS(=O)(=O)CC3CCCCC3)c(=O)n2C(CC(C)(C)C)C(=O)O)cc1", "note": "(stereo not drawn) [Example 10, 2-(3-(cyclohexylmethylsulfonamido)-5-methyl-2-oxo-6-(p-tolyl)pyridin-1(2H)-yl)-4,4-dimethylpentanoic acid]", "IC50": 1560}
    ]}
  ]
}
